# Reference: ChEMBL document CHEMBL1134114, “Novel sulfonate derivatives: potent antimitotic agents” (Bioorg Med Chem Lett, 2001)
# pIC50: −log10 of the molar value.
# Columns and labels:
# HCT-15 [1] = experiment: Antiproliferative activity against human colon carcinoma HCT-15 cell line(MDR(+))
# NCI-H460 [2] = experiment: Antiproliferative activity against human lung carcinoma NCI-H460 cell line (MDR(-))
# NCI-H460 [3] = experiment: Antiproliferative activity against human lung carcinoma NCI-H460 cell line (MDR(-)); Inactive at >10 uM
# HCT-15 [4] = experiment: Antiproliferative activity against human colon carcinoma HCT-15 cell line(MDR(+)); Inactive at >10 uM
# Tubulin alpha chain = Tubulin alpha chain (Sus scrofa, UniProt P02550); experiment: Concentration inhibiting tubulin polymerization; assay type: functional
# Chain of Tubulin alpha chain (P02550 whole entry, looked up): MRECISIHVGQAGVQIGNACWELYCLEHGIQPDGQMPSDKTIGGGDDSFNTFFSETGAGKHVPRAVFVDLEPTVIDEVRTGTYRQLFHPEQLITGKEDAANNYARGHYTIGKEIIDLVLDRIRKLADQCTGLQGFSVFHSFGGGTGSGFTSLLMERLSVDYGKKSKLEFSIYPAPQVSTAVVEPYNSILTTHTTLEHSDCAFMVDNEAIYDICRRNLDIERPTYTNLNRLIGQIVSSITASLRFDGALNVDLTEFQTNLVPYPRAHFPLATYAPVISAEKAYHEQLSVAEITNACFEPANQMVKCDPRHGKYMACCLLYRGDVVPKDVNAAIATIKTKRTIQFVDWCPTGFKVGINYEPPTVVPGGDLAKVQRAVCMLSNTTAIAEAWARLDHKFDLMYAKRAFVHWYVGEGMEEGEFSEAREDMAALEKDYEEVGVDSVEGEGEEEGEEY
SMILES,pIC50 (HCT-15 [1]),pIC50 (NCI-H460 [2]),IC50 (NCI-H460 [3]),IC50 (HCT-15 [4]),pIC50 (Tubulin alpha chain)
COc1ccc(S(=O)(=O)Oc2ccccc2NC(=O)c2ccccc2)cc1,6.51,6.39,–,–,–
COc1ccc(S(=O)(=O)Oc2ccccc2C(=O)Nc2ccc(F)cc2)cc1,–,–,Not Active,Not Active,–
COc1ccc(S(=O)(=O)Oc2cccnc2NC(=O)c2ccco2)cc1,–,–,Not Active,Not Active,–
COc1ccc(S(=O)(=O)Oc2cccnc2NC(=O)c2ccncc2)cc1,–,–,Not Active,Not Active,–
COc1ccc(S(=O)(=O)Oc2ccccc2NC(=O)c2ccccn2)cc1,6.96,6.52,–,–,5.39
COc1ccc(S(=O)(=O)Oc2ccccc2NC(=O)c2ccc(N(C)C)cc2)cc1,< 5.00,< 5.00,–,–,–
COc1ccc(S(=O)(=O)Oc2ccccc2NC(=O)c2cnccn2)cc1,7.17,6.60,–,–,5.28
COc1ccc(S(=O)(=O)Oc2ccccc2C(=O)Nc2ccccc2)cc1,–,–,Not Active,Not Active,–
COc1ccc(S(=O)(=O)Oc2ccccc2NC(=O)c2ccncc2)cc1,7.05,7.26,–,–,5.43
COc1ccc(S(=O)(=O)Oc2ccccc2NC(=O)c2cccnc2)cc1,< 5.52,< 5.22,–,–,–
COc1ccc(S(=O)(=O)Oc2ccccc2NC(=O)Cc2ccncc2)cc1,6.22,6.14,–,–,–
COc1ccc(S(=O)(=O)Oc2ccccc2NC(=O)c2ccc3ncccc3c2)cc1,< 5.00,< 5.00,–,–,–
COc1ccc(S(=O)(=O)Oc2ccccc2C(=O)Nc2ccncc2)cc1,–,–,Not Active,Not Active,–
COc1ccc(S(=O)(=O)Nc2cccnc2Nc2ccc(O)cc2)cc1 [ABT-751],6.47,6.46,–,–,5.51
COc1ccc(S(=O)(=O)Oc2ccccc2NC(=O)c2ccc(F)cc2)cc1,7.05,6.26,–,–,–
COc1ccc(S(=O)(=O)Oc2ccccc2NC(=O)Nc2ccccc2)cc1,< 5.00,< 5.00,–,–,–
COc1ccc(S(=O)(=O)Oc2ccccc2/C=C/c2ccncc2)cc1,7.25,6.89,–,–,5.46
COc1ccc(S(=O)(=O)Oc2ccccc2C(=O)Nc2ccccc2C)cc1,–,–,Not Active,Not Active,–
COc1ccc(S(=O)(=O)Oc2ccccc2NC(=O)Oc2ccccc2)cc1,< 5.00,< 5.00,–,–,–
COc1ccc(S(=O)(=O)Oc2ccccc2NC(=O)c2ccnc3ccccc23)cc1,< 5.00,< 5.00,–,–,–
COc1ccc(S(=O)(=O)Oc2ccccc2NC(=O)c2ccco2)cc1,7.72,7.62,–,–,–
